Measured values from patent US11685714B2, “Prodrugs of cytotoxic active agents having enzymatically cleavable groups” (BAYER PHARMA AKTIENGESELLSCHAFT, priority 2016, dated 2023).

Tests used:
[1] = molecular target: T1, recombinant human legumain (Homo sapiens, UniProt Q99538); assay: Legumain assay (cleavage of legumain-cleavable prodrugs); format: biochemical; settings: within 24 h; rh legumain, pH 5.0
T1 construct: purchased R&D Systems 2199-CY
T1 sequence (Q99538 26-323 limits assumed): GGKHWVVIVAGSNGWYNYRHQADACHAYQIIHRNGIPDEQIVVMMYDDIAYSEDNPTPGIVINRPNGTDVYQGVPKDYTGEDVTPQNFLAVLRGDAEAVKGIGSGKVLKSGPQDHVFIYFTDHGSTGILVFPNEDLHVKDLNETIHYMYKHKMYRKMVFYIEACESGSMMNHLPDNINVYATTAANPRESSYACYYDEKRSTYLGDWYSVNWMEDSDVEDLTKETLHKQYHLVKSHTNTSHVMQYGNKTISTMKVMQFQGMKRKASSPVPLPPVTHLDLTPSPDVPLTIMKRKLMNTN
Procedure: The legumain assay was conducted with recombinant human enzyme. The rh legumain enzyme solution (catalogue #2199-CY, R&D Systems) was diluted to the desired concentration in 50 mM Na acetate buffer/100 mM NaCl, pH4.0 and preincubated at 37° C. for 2 h. rh legumain was then adjusted to a final concentration of 1 ng/μl in 50 mM MES buffer, 250 mM NaCl, pH 5.0. For every legumain-cleavable prodrug to be examined, a mixture was made up in a micro reaction vessel (0.5 ml, from Eppendorf). For this purpose, the substrate solution was adjusted to the desired concentration (double concentration) with 50 mM MES buffer, 250 mM NaCl, pH 5.0. For the kinetic measurement of the enzymatic reaction, 250 μl of the legumain solution were first initially charged and the enzyme reaction was started by adding 250 μl of the substrate solution (final concentration: single concentration). At different times, 50 μl samples were taken. This sample was admixed immediately with 100 μl of ice-cold methanol in order to stop the enzymatic reaction and then frozen at −20° C. The times selected for sampling were after 0.5 h, 1 h, 3 h and 24 h. The samples were then analysed by means of RP-HPLC analysis and by LC-MS analysis. The determination of the toxophor released enabled the determination of the half-life t½ of the enzymatic reaction (FIG. 1). […]

[2] = test system: NCI-H292: human mucoepidermoid lung carcinoma cells; assay: MTT assay on NCI-H292; format: cell-based; settings: NCI-H292, 96 h, growth inhibition, 96 h incubation
Procedure: (§1) The analysis of the cytotoxic effects of the ADCs was carried out with various cell lines:
(§2) The cells were cultivated by the standard method as stated by the American Tissue Culture Collection (ATCC) or the Leibniz-lnstitut DSMZ-Deutsche Sammlung von Mikroorganismen und Zellkulturen GmbH (DSMZ) for the cell lines in question.
(§3) The cells were then incubated in an incubator at 37° C. and 5% carbon dioxide. […] To this end, the MTT reagent was incubated with the cells for 4 h, followed by lysis of the cells overnight by addition of the detergent. […] The measured data were used to calculate the ICo50 of the growth inhibition using the DRC (dose response curve). The proliferation of cells which were not treated with test substance but were otherwise identically treated was defined as the 100% figure.

[3] = test system: SK-HEP-1: human liver cell cancer line; assay: MTT assay on SK-HEP-1; format: cell-based; settings: SK-HEP1, 96 h, growth inhibition, 96 h incubation
Procedure: as §1, §2, §3

[4] = Stability in rat liver lysosomes (chapter C1c); format: in vitro ADME

## CNC(=O)[C@H](CCN(C(=O)CO)[C@@H](c1cc(-c2cc(F)ccc2F)cn1Cc1ccccc1)C(C)(C)C)NC(=O)[C@H](CC(N)=O)NC(=O)[C@@H](C)NC(=O)[C@H](C)NC(=O)Cc1ccncc1 [Example R3r-LDL, N-(Pyridin-4-ylacetyl)-L-alanyl-D-alanyl-N^1-[(2S)-4-[{(1R)-1-[1-benzyl-4-(2,5-difluorophenyl)-1H-pyrrol-2-yl]-2,2-dimethylpropyl}(glycoloyl)amino]-1-(methylamino)-1-oxobutan-2-yl]-L-aspartamide]
[1]
  extent of cleavage to the target compound by legumain: about 20%
[2]
  IC50: 190 nM
[3]
  IC50: 283 nM
[4]
  stability in rat liver lysosomes (in words): high stability
